Data published in patent publication US12600727B2, “Treatment of infections of toxoplasma gondii and closely related parasites” (WASHINGTON UNIVERSITY, priority 2018, dated 2026).
Read-outs that look alike come from different tables or passages of the source.

Experiments:
[1] = test system: Toxoplasma gondii tachyzoites (ME49-FLUC, type 2); test: T. gondii ME49-FLUC tachyzoite growth inhibition in HFF, luciferase assay; assay type: cell-based; conditions: T. gondii ME49-FLUC (type 2) tachyzoites in HFF
Protocol: Toxoplasma gondii tachyzoites (ME49-FLUC, type 2) (27) were serially passaged in human foreskin fibroblasts (HFF) cultured in complete DMEM medium (DMEM supplemented with 10% fetal bovine serum (FBS), glutamine (10 mM) and gentamycin (10 μg/mL)). For each assay described, infected monolayers were scraped, needle passed (23 ga), and parasites were separated from host cell debris using a three (3) micron pore polycarbonate filter. HeLa cells were cultured in MEM media that contained 10% FBS, 4 mM L-glutamine and 10 mM HEPES solution. Cell culture and assays were conducted using a 37° C. incubator with 5% CO2. Cell cultures were negative for mycoplasma, as determined using the e-Myco plus kit (Intron Biotechnology).
White, clear bottom 96-well assay plates were set up as described above with the following modifications. Only the inner 60 wells were used for the assay in order to reduce variability that results from evaporation during incubation. Dilution of compound stock is as described above, with all wells containing a final concentration of 0.1% DMSO. DMSO (vehicle control) and pyrimethamine (2.5 μM, positive control) were included in the outside wells of all plates as controls. Liquid handling (serial dilutions, compound dilutions, cell feeding, plate-to-plate transfers, etc.) utilized a Dual Pod Biomek FX. Luciferase assays were performed using the integrated and automated platform (Beckman Coulter). The SAMI EX software was used to design and execute the screening assay and enabled efficient and uniform assay execution across all the assay plates.

[2] = test system: Neospora caninum parasites (NC-1 strain); test: N. caninum (NC-1, lac-Z) growth inhibition in HFF, β-Gal assay; assay type: cell-based; conditions: 72 h
Protocol: Neospora caninum parasites (NC-1 strain) expressing a lac-Z transgene (1) were serially passaged as tachyzoites in human foreskin fibroblasts cultured in DMEM supplemented with 10% fetal bovine serum (FBS), glutamine (10 mM) and gentamycin (10 μg/mL). Mature cultures were scraped, syringe passed using a 25 g needle to release parasites, filtered through a 3 micron polycarbonate filter to remove host cell debris and counted prior to each assay. All cultures were maintained in a 37° C. incubator with 5% CO2 and were verified mycoplasma free using the e-Myco plus Mycoplasma PCR detection kit (Boca Scientific).
Compounds were prepared as 10 mM stock in 100% DMSO. Pyrimethamine (positive control) and DMSO were included as controls in all plates and all replicates. The EC50 values were determined using a 10-point dose response curve using a 2-fold dilution series from 5.0 μM to 0.01 μM across the plate. Experiments were conducted in 96-well plates containing confluent HFF cells. Each assay plate was inoculated with 1×10^3 parasites (100 μL) containing 100 μL of 2× compound and incubated for 72 h prior to preparation for the j-Gal assay as described in Seeber, F. et al., Gene 169 (1996): 39-45, hereby incorporated by reference in its entirety and particularly in relation to the β-Gal assay protocol. Briefly, culture medium was replaced, wells rinsed with 200 μL of PBS followed by incubation with 50 μL of lysis buffer (100 mM HEPES, 1 mM MgSO4, 1% Triton X-100, 5 mM DTT) for 10 min at 50° C.
EC50 values determined from 10-point dose response curve (5 μM-0.01 μM) and presented as the average of three biological replicates. Linear regression and dose response inhibition (log ([compound]) vs normalized response-variable slope) were performed with Prism 8 for Mac (Graphpad Software, Inc.) and both the fits and data are shown in FIG. 1. Values represent the average of three biological replicates each with two internal replicates and are plotted as mean±S.E.M.

[3] = N. caninum NC-1 lac-Z, 10-point dose response 5 μM-0.01 μM, average of three biological replicates, read-out: EC50

COc1ccc(NC(=O)N2CCCCN3[C@H](COCCC(=O)O)[C@H](c4ccc(C#Cc5ccccc5)cc4)[C@@H]3C2)cc1 [Compound 2, 3-(((8R,9R,10S)-6-((4-methoxyphenyl)carbamoyl)-9-(4-(phenylethynyl)phenyl)-1,6-diazabicyclo[6.2.0]decan-10-yl)methoxy)propanoic acid]
EC50 [1]: 64.3 nM

COc1ccc(NC(=O)N2CCCCN3[C@H](CN(C)S(C)(=O)=O)[C@H](c4ccc(C#Cc5ccccc5)cc4)[C@@H]3C2)cc1 [Compound 4, (8R,9R,10S)-N-(4-methoxyphenyl)-10-((N-methylmethylsulfonamido)methyl)-9-(4-(phenylethynyl)phenyl)-1,6-diazabicyclo[6.2.0]decane-6-carboxamide]
EC50 [1]: 34.8 nM

COC[C@@H]1[C@H](c2ccc(C#Cc3ccccc3)cc2)[C@@H]2CN(C(=O)Nc3ccc(OC)cc3)CCCCN12 [Compound 9, (8R,9R,10S)-10-(methoxymethyl)-N-(4-methoxyphenyl)-9-(4-(phenylethynyl)phenyl)-1,6-diazabicyclo[6.2.0]decane-6-carboxamide]
EC50 [1]: 50.4 nM

COc1ccc(NC(=O)N2CCCCN3[C@H](CO)[C@H](c4ccc(C#CC5CC5)cc4)[C@@H]3C2)cc1 [Compound 7, (8R,9R,10S)-9-(4-(cyclopropylethynyl)phenyl)-10-(hydroxymethyl)-N-(4-methoxyphenyl)-1,6-diazabicyclo[6.2.0]decane-6-carboxamide]
EC50 [1]: 1610 nM

CN(C[C@@H]1[C@H](c2ccc(C#Cc3ccccc3)cc2)[C@@H]2CN(C(=O)Nc3ccc(OC4CC4)cc3)CCCCN12)S(C)(=O)=O [Compound 14, (8R,9R,10S)-N-(4-cyclopropoxyphenyl)-10-((N-methylmethylsulfonamido)methyl)-9-(4-(phenylethynyl)phenyl)-1,6-diazabicyclo[6.2.0]decane-6-carboxamide]
EC50 [1]: 18.5 nM
EC50 [2, 3]: 37 nM

COc1ccc(NC(=O)N2CCCCN3[C@H](CO)[C@H](c4ccc(C#Cc5ccccc5)cc4)[C@@H]3C2)cc1 [Compound 18, (8R,9R,10S)-10-(hydroxymethyl)-N-(4-methoxyphenyl)-9-(4-(phenylethynyl)phenyl)-1,6-diazabicyclo[6.2.0]decane-6-carboxamide]
EC50 [1]: 28.9 nM

COc1ccc(NC(=O)N2CCCCN3[C@H](CN4CCC4)[C@H](c4ccc(C#Cc5ccccc5)cc4)[C@@H]3C2)cc1 [Compound 17, (8R,9S,10S)-10-(azetidin-1-ylmethyl)-N-(4-methoxyphenyl)-9-(4-(phenylethynyl)phenyl)-1,6-diazabicyclo[6.2.0]decane-6-carboxamide]
EC50 [1]: 442 nM

COc1ccc(NC(=O)N2CCCCCN3[C@H](CO)[C@H](c4ccc(C#Cc5ccccc5)cc4)[C@@H]3C2)cc1 [Compound 20, (9R,10R,11S)-11-(hydroxymethyl)-N-(4-methoxyphenyl)-10-(4-(phenylethynyl)phenyl)-1,7-diazabicyclo[7.2.0]undecane-7-carboxamide]
EC50 [1]: 169 nM
EC50 [2, 3]: 157 nM

COc1ccc(NC(=O)N2CCCCN3[C@H](CN(C)CCF)[C@H](c4ccc(C#Cc5ccccc5)cc4)[C@@H]3C2)cc1 [Compound 5, (8R,9S,10S)-10-(((2-fluoroethyl)(methyl)amino)methyl)-N-(4-methoxyphenyl)-9-(4-(phenylethynyl)phenyl)-1,6-diazabicyclo[6.2.0]decane-6-carboxamide]
EC50 [1]: 89.5 nM

COc1ccc(NC(=O)N2CCCCN3[C@H](CN4CCN(C)CC4)[C@H](c4ccc(C#Cc5ccccc5)cc4)[C@@H]3C2)cc1 [Compound 1, (8R,9S,10S)-N-(4-methoxyphenyl)-10-((4-methylpiperazin-1-yl)methyl)-9-(4-(phenylethynyl)phenyl)-1,6-diazabicyclo[6.2.0]decane-6-carboxamide]
EC50 [1]: 425 nM

COc1ccc(NC(=O)N2CCCCN3C[C@H](c4ccc(C#Cc5ccccc5)cc4)[C@@H]3C2)cc1 [Compound 16]
EC50 [1]: 77 nM
EC50 [2, 3]: 193 nM

COc1ccc(NC(=O)N2CCCCN3[C@H](CO)[C@H](c4ccc(C#Cc5ccccc5)cc4)[C@]3(CO)C2)cc1 [Compound 11, (8R,9S,10S)-8,10-bis(hydroxymethyl)-N-(4-methoxyphenyl)-9-(4-(phenylethynyl)phenyl)-1,6-diazabicyclo[6.2.0]decane-6-carboxamide]
EC50 [1]: 1690 nM

O=C(Nc1cccc(F)c1)N1CCCCN2[C@H](CO)[C@H](c3ccc(C#Cc4cccnc4)cc3)[C@@H]2C1 [Compound 10, (8R,9R,10S)-N-(3-fluorophenyl)-10-(hydroxymethyl)-9-(4-(pyridin-3-ylethynyl)phenyl)-1,6-diazabicyclo[6.2.0]decane-6-carboxamide]
EC50 [1]: 493 nM

COc1ccc(NC(=O)N2CCCN3[C@H](CO)[C@H](c4ccc(C#Cc5ccccc5)cc4)[C@@H]3C2)cc1 [Compound 21, (7R,8R,9S)-9-(hydroxymethyl)-N-(4-methoxyphenyl)-8-(4-(phenylethynyl)phenyl)-1,5-diazabicyclo[5.2.0]nonane-5-carboxamide]
EC50 [1]: 1750 nM

CCc1nc(N)nc(N)c1-c1ccc(Cl)cc1 [Pyrimethamine (Pyr), Pyrimethamine, reference compound]
EC50 [2]: 263 nM

COc1ccc(NC(=O)N2C[C@H](O)[C@H](O)CN3[C@H](CN(C)C)[C@H](c4ccc(C#Cc5ccccc5)cc4)[C@@H]3C2)cc1 [Compound 8, (3R,4S,8R,9S,10S)-10-((dimethylamino)methyl)-3,4-dihydroxy-N-(4-methoxyphenyl)-9-(4-(phenylethynyl)phenyl)-1,6-diazabicyclo[6.2.0]decane-6-carboxamide]
EC50 [1]: 39.3 nM
EC50 [2, 3]: 30 nM

COc1ccc(NC(=O)N2CCCCN3[C@@H](C2)[C@@H](c2ccc(C#Cc4ccccc4)cc2)[C@@H]3CN(C)S(C)(=O)=O)cc1 [Compound 6, (8R,9R,10R)-N-(4-methoxyphenyl)-10-((N-methylmethylsulfonamido)methyl)-9-(4-(phenylethynyl)phenyl)-1,6-diazabicyclo[6.2.0]decane-6-carboxamide]
EC50 [1]: 40 nM
EC50 [2, 3]: 60 nM

OC[C@@H]1[C@H](c2ccc(C#Cc3ccccc3)cc2)[C@@H]2CN(c3nc4ccccc4s3)CCCCN12 [Compound 19, ((8R,9R,10S)-6-(benzo[d]thiazol-2-yl)-9-(4-(phenylethynyl)phenyl)-1,6-diazabicyclo[6.2.0]decan-10-yl)methanol]
EC50 [1]: 3940 nM

COc1ccc(NC(=O)N2CCCCN3[C@H](CO)[C@H](c4ccc(C#Cc5ccccc5C#N)cc4)[C@@H]3C2)cc1 [Compound 12, (8R,9R,10S)-9-(4-((2-cyanophenyl)ethynyl)phenyl)-10-(hydroxymethyl)-N-(4-methoxyphenyl)-1,6-diazabicyclo[6.2.0]decane-6-carboxamide]
EC50 [1]: 213 nM

O=C(NC1CCC1)N1CCCCN2[C@H](CO)[C@H](c3ccc(C#Cc4ccccc4)cc3)[C@@H]2C1 [Compound 3, (8R,9R,10S)-N-cyclobutyl-10-(hydroxymethyl)-9-(4-(phenylethynyl)phenyl)-1,6-diazabicyclo[6.2.0]decane-6-carboxamide]
EC50 [1]: 2580 nM

COc1ccc(NC(=O)N2CCCCN3[C@@H](CO)[C@H](c4ccc(C#Cc5ccccn5)cc4)[C@@H]3C2)cc1 [Compound 13, (8R,9R,10R)-10-(hydroxymethyl)-N-(4-methoxyphenyl)-9-(4-(pyridin-2-ylethynyl)phenyl)-1,6-diazabicyclo[6.2.0]decane-6-carboxamide]
EC50 [1]: 646 nM
